Measurements reported in EP1135374B9, “BENZIMIDAZOLE COMPOUNDS THAT ARE VITRONECTIN RECEPTOR ANTAGONISTS” (SCHERING CORPORATION, priority 1998, dated 2000).

Experiments:
[1] = biological target: T1, αvβ3 receptor (purified from human placenta) (Homo sapiens, UniProt P05106+P06756); experiment: competition radioligand binding assay, 125I-echistatin to αvβ3 receptor; settings: αvβ3, inhibition of specific 125I-echistatin binding
T1 construct: αvβ3 receptor (purified from human placenta); from tissue; host or cells: human placenta
Description: The following assay procedure, which is a competition radioligand binding assay, was carried out to determine the activity of the foregoing compounds as αvβ3 antagonists. The competitive assay procedure described in Kumar, et. al., "Biochemical Characterization Of The Binding Of Echistatin To Integrin αvβ3 Receptor", Journal Of Pharmacology And Experimental Therapeutics, Vol. 283, No. 2, pp. 843-853 (1997) was employed. Thus, binding of ^125I-echistatin (radiolabeled by the chloramine-T method to a specific activity of 2000 Ci/mmol (Amersham, Chicago, Il.)) to αvβ3 receptor (purified from human placenta), both prepared as described in Kumar, et al., was competed by the compounds prepared in the foregoing examples. Purified αvβ3 receptor was coated onto Microlite-2 plates at a concentration of 50 ng/well. ^125I-echistatin was added to the wells to a final concentration of 0.05 nM in binding buffer (50 µl/well) in the presence of the competing test compound. The competing test compounds were employed at serially diluted concentrations ranging from 1 pM to 100 nM. After a 3 hour incubation at room temperature, the wells were washed, and radioactivity, reflecting binding by ^125 I-echistatin to αvβ3 receptors, was determined with Top Count (Packard). Each data point is an average of values from triplicate wells.
Specific binding of ^125I-echistatin was calculated as the difference between the amount of ^125I-echistatin bound in the absence (total binding) and the amount of ^125I-echistatin bound in the presence of a 200-fold molar excess of unlabeled echistatin (nonspecific binding). The efficacy of the test compounds for inhibiting specific binding of ^125I-echistatin to αvβ3 receptors was determined by plotting a graph of specific binding (y-axis) as a function of test compound concentration (x-axis). The concentration of test compound required to inhibit 50% of the specific binding (IC50) was determined from the plot. The IC50 may be directly converted mathematically to Ki, which is a measure of the receptor binding affinity of the compounds under the defined assay conditions.

purified αllbβ3 receptor = purified αllbβ3 receptor (Homo sapiens, UniProt P05106+P08514); experiment: similar competitive binding assay with 125I-echistatin on αllbβ3 receptor, used for the specificity index; settings: specificity index IC50 αllbβ3/ IC50 αvβ3; for Specificity α11bβ3 / αvβ3: Table 13; for Specificity αIIβ3 / αvβ3: Table 14
Description: To measure the relative affinity of the test compounds for αvβ3 receptors versus affinity for αllbβ3 receptors, similar competitive assays were carried out using purified αllbβ3 receptor and ^125I-echistatin (iodinated using the lactoperoxidase method). The specificity index, which is a measure of the relative binding affinity for αvβ3, versus αllbβ3, may be determined by dividing the IC50 value for αllbβ3 by the IC50 value for αvβ3.

**Q.** What does the source list for `O=C(N[C@@H](CNC(=O)c1ccc(CN(Cc2nc3ccccc3[nH]2)C(=O)NC2CCCCC2)cc1)C(=O)O)OCc1ccccc1` [Example 5-28]?
**A.** IC50 ([1]; Table 10): 0.65 nM; SPECIFICITY αIIbβ3 / αvβ3 (purified αllbβ3 receptor; Table 10): 1136

**Q.** `O=C(N[C@@H](CNC(=O)c1ccc(CN(Cc2nc3ccccc3[nH]2)C(=O)Nc2ccc(Cl)cc2)cc1)C(=O)O)OCc1ccccc1` [Example 5-35] was tested. Which IC50 ([1]; Table 10) did it give?
**A.** 8.1 nM

**Q.** And the “SPECIFICITY αIIbβ3 / αvβ3” value (purified αllbβ3 receptor; Table 10)?
**A.** 240

**Q.** `O=C(O)CC(NC(=O)c1ccc(CN(Cc2nc3ccccc3[nH]2)C(=O)CCc2ccccc2)cc1)c1ccccc1` (stereo not drawn) [Example 5-68] was tested. Which IC50 ([1]; Table 13) did it give?
**A.** 6630 nM

**Q.** And the “Specificity α11bβ3 / αvβ3” value (purified αllbβ3 receptor)?
**A.** 0.4

**Q.** Which results are given for `O=C(N[C@@H](CNC(=O)c1ccc(CN(Cc2nc3ccccc3[nH]2)C(=O)COc2ccccc2)cc1)C(=O)O)OCc1ccccc1` [Example 5-19]?
**A.** IC50 ([1]; Table 10): 8.9 nM; SPECIFICITY αIIbβ3 / αvβ3 (purified αllbβ3 receptor; Table 10): 34

**Q.** Which results are given for `COc1ccc(NC(=S)N(Cc2ccc(C(=O)NC[C@H](NC(=O)OCc3ccccc3)C(=O)O)cc2)Cc2nc3ccccc3[nH]2)cc1` [Example 5-46]?
**A.** IC50 ([1]; Table 10): 2.7 nM; SPECIFICITY αIIbβ3 / αvβ3 (purified αllbβ3 receptor; Table 10): 1065

**Q.** With `COCC(=O)N(Cc1ccc(C(=O)NC[C@H](NC(=O)OCc2ccccc2)C(=O)O)cc1)C(C)c1nc2ccccc2[nH]1` (stereo partly drawn) [Example 5-77] as the compound, how does the IC50 ([1]; Table 15) read?
**A.** 49 nM

**Q.** What about the “SPECIFICITY αIIbβ3 / αvβ3” value (purified αllbβ3 receptor; Table 15) of the same compound?
**A.** 12.4

**Q.** Which IC50 ([1]; Table 10) does the source give for `CCOC(=O)CNC(=O)N(Cc1ccc(C(=O)NC[C@H](NC(=O)OCc2ccccc2)C(=O)O)cc1)Cc1nc2ccccc2[nH]1` [Example 5-45, N^3-[4-[(benzimidazol-2-yl)methyl][[(ethoxycarbonylmethyl)amino]-carbonyl]aminomethylbenzoyl]-N^2-Cbz-1-2,3-diaminopropionic acid] here?
**A.** 2.2 nM

**Q.** And the “SPECIFICITY αIIbβ3 / αvβ3” value (purified αllbβ3 receptor; Table 10)?
**A.** 1333

**Q.** For `CC(NCc1ccc(C(=O)NC[C@H](NC(=O)OCc2ccccc2)C(=O)O)cc1)c1nc2ccccc2[nH]1` (stereo partly drawn) [Example 5-75], which IC50 ([1]; Table 15) is on record?
**A.** 306 nM

**Q.** What about the “SPECIFICITY αIIbβ3 / αvβ3” value (purified αllbβ3 receptor; Table 15) of the same compound?
**A.** 10.2

**Q.** For `CCCCOC(=O)N[C@@H](CNC(=O)c1ccc(CN(Cc2nc3ccccc3[nH]2)C(=O)NCC(=O)O)cc1)C(=O)O` [Example 5-97, N^3-[4-[(Benzimidazol-2-yl)methyl][[(carboxymethyl)amino]carbonyl]aminomethylbenzoyl]-N^2-(n-butoxycarbonyl)-L-2,3-diaminopropionic acid], which IC50 ([1]; Table 16) is on record?
**A.** 4.3 nM

**Q.** What about the “Specificity αllbβ3 / αvβ3” value (purified αllbβ3 receptor; Table 16) of the same compound?
**A.** 2600

**Q.** `CCOC(=O)[C@H](CC(C)C)NC(=O)N(Cc1ccc(C(=O)NC[C@H](NC(=O)OCc2ccccc2)C(=O)O)cc1)Cc1nc2ccccc2[nH]1` [Example 5-53] was tested. Which IC50 ([1]; Table 10) did it give?
**A.** 3.8 nM

**Q.** And the “SPECIFICITY αIIbβ3 / αvβ3” value (purified αllbβ3 receptor; Table 10)?
**A.** 483

**Q.** What does the source list for `O=C(N[C@@H](CNC(=O)c1ccc(CN(Cc2nc3ccccc3[nH]2)C(=S)NC2CCCCC2)cc1)C(=O)O)OCc1ccccc1` [Example 5-55]?
**A.** IC50 ([1]; Table 10): 2.5 nM; SPECIFICITY αIIbβ3 / αvβ3 (purified αllbβ3 receptor; Table 10): 620

**Q.** What does the source list for `CC(C)(C)OC(=O)N[C@@H](CNC(=O)c1ccc(CN(Cc2nc3ccccc3[nH]2)C(=O)CCc2ccccc2)cc1)C(=O)O` [Example 5-63]?
**A.** IC50 ([1]; Table 12): 20 nM; Specificity αllbβ3 / αvβ3 (purified αllbβ3 receptor; Table 12): 293

**Q.** Which results are given for `O=C(NC(CNC(=O)c1ccc(CN(CCc2nc3ccccc3[nH]2)C(=O)CCc2ccccc2)cc1)C(=O)O)OCc1ccccc1` (stereo not drawn) [Example 5-73]?
**A.** IC50 ([1]; Table 14): 170 nM; Specificity αIIβ3 / αvβ3 (purified αllbβ3 receptor): 0.7

**Q.** What does the source list for `O=C(NC[C@H](NS(=O)(=O)c1ccccc1)C(=O)O)c1ccc(CN(Cc2nc3ccccc3[nH]2)C(=O)NC2CCCCC2)cc1` [Example 5-81]?
**A.** IC50 ([1]; Table 16): 8.2 nM; Specificity αllbβ3 / αvβ3 (purified αllbβ3 receptor; Table 16): 8.0

**Q.** Which results are given for `O=C(O)CC(NC(=O)c1ccc(CNCc2nc3ccccc3[nH]2)cc1)c1ccccc1` (stereo not drawn) [Example 5-65]?
**A.** IC50 ([1]; Table 13): 9230 nM; Specificity α11bβ3 / αvβ3 (purified αllbβ3 receptor): 0.4

**Q.** For `CC(C)(C)OC(=O)N[C@@H](CNC(=O)c1ccc(CNCc2nc3ccccc3[nH]2)cc1)C(=O)O` [Example 5-60], which IC50 ([1]; Table 12) is on record?
**A.** 25 nM

**Q.** What about the “Specificity αllbβ3 / αvβ3” value (purified αllbβ3 receptor; Table 12) of the same compound?
**A.** 90

**Q.** For `O=C(N[C@@H](CNC(=O)c1ccc(CN(Cc2nc3ccccc3[nH]2)C(=O)NCc2ccccc2)cc1)C(=O)O)OCc1ccccc1` [Example 5-29], which IC50 ([1]; Table 10) is on record?
**A.** 4.3 nM

**Q.** What about the “SPECIFICITY αIIbβ3 / αvβ3” value (purified αllbβ3 receptor; Table 10) of the same compound?
**A.** 144

**Q.** For `CCCCOC(=O)N[C@@H](CNC(=O)c1ccc(CN(Cc2nc3ccccc3[nH]2)C(=O)NC2CCCCC2)cc1)C(=O)O` [Example 5-82], which IC50 ([1]; Table 16) is on record?
**A.** 2.2 nM

**Q.** What about the “Specificity αllbβ3 / αvβ3” value (purified αllbβ3 receptor; Table 16) of the same compound?
**A.** 1259

**Q.** `CCCCOC(=O)N[C@@H](CNC(=O)c1ccc(CN(Cc2nc3ccccc3[nH]2)C(=O)N[C@H](C(=O)OCC)C(C)C)cc1)C(=O)O` [Example 5-90] was tested. Which IC50 ([1]; Table 16) did it give?
**A.** 2.6 nM

**Q.** And the “Specificity αllbβ3 / αvβ3” value (purified αllbβ3 receptor; Table 16)?
**A.** 1697

**Q.** What does the source list for `O=C(N[C@@H](CNC(=O)c1ccc(CN(Cc2nc3ccccc3[nH]2)C(=O)N2CCOCC2)cc1)C(=O)O)OCc1ccccc1` [Example 5-42]?
**A.** IC50 ([1]; Table 10): 1.8 nM; SPECIFICITY αIIbβ3 / αvβ3 (purified αllbβ3 receptor; Table 10): 39

**Q.** `COCC(=O)N(CCc1nc2ccccc2[nH]1)Cc1ccc(C(=O)NCC(NC(=O)OCc2ccccc2)C(=O)O)cc1` (stereo not drawn) [Example 5-72] was tested. Which IC50 ([1]; Table 14) did it give?
**A.** 559 nM

**Q.** And the “Specificity αIIβ3 / αvβ3” value (purified αllbβ3 receptor)?
**A.** 0.5

**Q.** With `COCC(=O)N(Cc1ccc(C(=O)NC[C@H](NC(=O)OC(C)(C)C)C(=O)O)cc1)Cc1nc2ccccc2[nH]1` [Example 5-62] as the compound, how does the IC50 ([1]; Table 12) read?
**A.** 30 nM

**Q.** And the “Specificity αllbβ3 / αvβ3” value (purified αllbβ3 receptor; Table 12)?
**A.** 419

**Q.** What does the source list for `O=C(N[C@@H](CNC(=O)c1ccc(CN(Cc2nc3ccccc3[nH]2)C(=O)Nc2ccccc2)cc1)C(=O)O)OCc1ccccc1` [Example 5-27]?
**A.** IC50 ([1]; Table 10): 1.56 nM; SPECIFICITY αIIbβ3 / αvβ3 (purified αllbβ3 receptor; Table 10): 481

**Q.** With `CCOC(=O)[C@H](C)NC(=O)N(Cc1ccc(C(=O)NC[C@H](NC(=O)OCc2ccccc2)C(=O)O)cc1)Cc1nc2ccccc2[nH]1` [Example 5-50] as the compound, how does the IC50 ([1]; Table 10) read?
**A.** 3 nM

**Q.** What about the “SPECIFICITY αIIbβ3 / αvβ3” value (purified αllbβ3 receptor; Table 10) of the same compound?
**A.** 805

**Q.** For `COCC(=O)N(Cc1ccc(C(=O)NC[C@@H](NC(=O)OCc2ccccc2)C(=O)O)cc1)Cc1nc2ccccc2[nH]1` [Example 5-58], which IC50 ([1]; Table 11) is on record?
**A.** 118 nM

**Q.** What about the “Specificity αllbβ3 / αvβ3” value (purified αllbβ3 receptor; Table 11) of the same compound?
**A.** 46

**Q.** Which IC50 ([1]; Table 14) does the source give for `O=C(NC(CNC(=O)c1ccc(CNCCc2nc3ccccc3[nH]2)cc1)C(=O)O)OCc1ccccc1` (stereo not drawn) [Example 5-70] here?
**A.** 413 nM

**Q.** And the “Specificity αIIβ3 / αvβ3” value (purified αllbβ3 receptor)?
**A.** 0.2

**Q.** `O=C(O)CNC(=O)N(Cc1ccc(C(=O)NC[C@H](NC(=O)OCc2ccccc2)C(=O)O)cc1)Cc1nc2ccccc2[nH]1` [Example 5-96, N^3-[4-[(Benzimidazol-2-yl)methyl] [[(carboxymethyl)amino]carbonyl]aminomethylbenzoyl]-N^2-Cbz-L-2,3-diaminopropionic acid] was tested. Which IC50 ([1]; Table 16) did it give?
**A.** 3.4 nM

**Q.** What about the “Specificity αllbβ3 / αvβ3” value (purified αllbβ3 receptor; Table 16) of the same compound?
**A.** 528
